{
  "source": "paper PMC2678021",
  "about": "(Cancer research, 2009)",
  "key": {"Src F382V": {"molecular_target": "Src F382V (Gallus gallus, UniProt P00523, Y382V)", "experiment": "In vitro kinase assay, c-Src 382V kinase domain", "format": "biochemical", "details": "read-out: IC50 Src F382V; Table 2; kinase domain construct"}, "Src T338I": {"molecular_target": "Src T338I (Gallus gallus, UniProt P00523, T338I)", "experiment": "In vitro kinase assay, c-Src T338I kinase domain", "format": "biochemical", "details": "read-out: IC50 Src T338I; Table 2; kinase domain construct"}, "Hck": {"molecular_target": "Hck (Homo sapiens, UniProt P08631)", "sequence (P08631 whole entry, species assumed)": "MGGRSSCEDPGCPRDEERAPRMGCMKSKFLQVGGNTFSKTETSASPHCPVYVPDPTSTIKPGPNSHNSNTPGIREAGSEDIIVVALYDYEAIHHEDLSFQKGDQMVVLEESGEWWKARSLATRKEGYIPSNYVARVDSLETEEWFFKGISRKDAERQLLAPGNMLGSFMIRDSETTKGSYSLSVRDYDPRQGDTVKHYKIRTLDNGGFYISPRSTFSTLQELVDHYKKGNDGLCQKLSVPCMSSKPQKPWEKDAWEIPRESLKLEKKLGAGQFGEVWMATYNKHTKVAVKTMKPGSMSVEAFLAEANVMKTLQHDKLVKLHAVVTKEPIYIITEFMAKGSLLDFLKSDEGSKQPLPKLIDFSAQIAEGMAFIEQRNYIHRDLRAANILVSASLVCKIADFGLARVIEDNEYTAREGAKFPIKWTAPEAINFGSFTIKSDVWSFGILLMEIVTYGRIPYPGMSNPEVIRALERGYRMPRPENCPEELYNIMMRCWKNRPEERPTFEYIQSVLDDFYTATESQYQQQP", "experiment": "In vitro kinase assay, Hck", "format": "biochemical", "details": "read-out: IC50 Hck, Table 1, triplicate or quadruplicate"}, "[1]": {"tested_on": "BCR-ABL-induced phosphorylation of CrkL", "experiment": "BCR-ABL-induced phosphorylation of CrkL in Ba/F3 cells", "format": "cell-based", "details": "Ba/F3 cells expressing native and mutant isoforms of BCR-ABL; data not shown"}, "parental Ba/F3 cells": {"tested_on": "parental Ba/F3 cells", "experiment": "Growth of parental Ba/F3 control cells", "format": "cell-based", "details": "48 hours, media containing IL-3; up to highest concentration tested (5 μM)"}, "Src F278H": {"molecular_target": "Src F278H (Gallus gallus, UniProt P00523, F278H)", "experiment": "In vitro kinase assay, c-Src F278H kinase domain", "format": "biochemical", "details": "read-out: IC50 Src F278H; Table 2; kinase domain construct"}, "Src E280V": {"molecular_target": "Src E280V (Gallus gallus, UniProt P00523, E280V)", "experiment": "In vitro kinase assay, c-Src E280V kinase domain", "format": "biochemical", "details": "read-out: IC50 Src E280V; Table 2; kinase domain construct"}},
  "data": [
    {"smiles": "COc1ccc(Nc2ncnc(-c3cccnc3Nc3cc(NC(=O)c4ccc(CN5CCN(C)CC5)cc4)ccc3C)n2)cc1", "note": "[DSA8]", "values": [
      {"measurement": "IC50", "setting": "Src F382V", "result": "4.4 ± 1.7", "unit": "nM"},
      {"measurement": "IC50", "setting": "Src T338I", "result": "18 ± 6", "unit": "nM"},
      {"measurement": "IC50", "setting": "Hck", "result": "6.6 ± 2.3", "unit": "nM"},
      {"measurement": "BCR-ABL-induced phosphorylation of CrkL", "setting": "[1]", "result": "block"},
      {"measurement": "Growth of parental Ba/F3 control cells", "setting": "parental Ba/F3 cells", "result": "minimally affected"},
      {"measurement": "IC50", "setting": "Src F278H", "result": "7 ± 2", "unit": "nM"},
      {"measurement": "IC50", "setting": "Src E280V", "result": "4 ± 1.2", "unit": "nM"}
    ]}
  ]
}
